8 compounds from ChEMBL document CHEMBL5321205, “Development and therapeutic potential of adaptor-associated kinase 1 inhibitors in human multifaceted diseases” (Eur J Med Chem, 2023) can be followed below.

For data set [1], the target named is T1, AP2-associated protein kinase 1 (Homo sapiens, UniProt Q2M2I8). The data set can be described thus: Inhibition of AAK1 (unknown origin).
Data set [2] concerns the target T1, AP2-associated protein kinase 1. Put plainly: Binding affinity of AAK1 (unknown origin) assessed as dissociation constant.
A short description of data set [3]: Oral bioavailability in mouse at 10 mg/kg measured upto 24 hrs. The data set is classed as ADME, organism-based. The conditions noted are these: in vivo.
The nature of data set [4]: Half life in mouse at 10 mg/kg, po or 1 mg/kg, iv measured upto 24 hrs. Format: ADME, organism-based. The conditions noted are these: in vivo.
In data set [5] the target is T1, AP2-associated protein kinase 1. The data set can be described thus: Inhibition of GST-tagged recombinant AAK1 (unknown origin) using AP2M1 peptide as substrate by ADP-Glo kinase assay. (In general: In ADP-Glo the light output rises with the ADP produced.)
Data set [6] shares this target. The data set can be described thus: Inhibition of GST-Xa-tagged recombinant human AAK1 using (5-FAM)-Aha-KEEQSQITSQVTGQIGWR-NH2 as substrate assessed as reduction in AP2M1 phosphorylation incubated for 3 hrs in presence of ATP by fluorescence based assay.
The target is the same in data set [7]. Put plainly: Inhibition of AAK1 expressed in human […] cells. Format: cell-based, HEK293F.

Some results are limits rather than exact numbers.

T1 sequence (Q2M2I8 whole entry): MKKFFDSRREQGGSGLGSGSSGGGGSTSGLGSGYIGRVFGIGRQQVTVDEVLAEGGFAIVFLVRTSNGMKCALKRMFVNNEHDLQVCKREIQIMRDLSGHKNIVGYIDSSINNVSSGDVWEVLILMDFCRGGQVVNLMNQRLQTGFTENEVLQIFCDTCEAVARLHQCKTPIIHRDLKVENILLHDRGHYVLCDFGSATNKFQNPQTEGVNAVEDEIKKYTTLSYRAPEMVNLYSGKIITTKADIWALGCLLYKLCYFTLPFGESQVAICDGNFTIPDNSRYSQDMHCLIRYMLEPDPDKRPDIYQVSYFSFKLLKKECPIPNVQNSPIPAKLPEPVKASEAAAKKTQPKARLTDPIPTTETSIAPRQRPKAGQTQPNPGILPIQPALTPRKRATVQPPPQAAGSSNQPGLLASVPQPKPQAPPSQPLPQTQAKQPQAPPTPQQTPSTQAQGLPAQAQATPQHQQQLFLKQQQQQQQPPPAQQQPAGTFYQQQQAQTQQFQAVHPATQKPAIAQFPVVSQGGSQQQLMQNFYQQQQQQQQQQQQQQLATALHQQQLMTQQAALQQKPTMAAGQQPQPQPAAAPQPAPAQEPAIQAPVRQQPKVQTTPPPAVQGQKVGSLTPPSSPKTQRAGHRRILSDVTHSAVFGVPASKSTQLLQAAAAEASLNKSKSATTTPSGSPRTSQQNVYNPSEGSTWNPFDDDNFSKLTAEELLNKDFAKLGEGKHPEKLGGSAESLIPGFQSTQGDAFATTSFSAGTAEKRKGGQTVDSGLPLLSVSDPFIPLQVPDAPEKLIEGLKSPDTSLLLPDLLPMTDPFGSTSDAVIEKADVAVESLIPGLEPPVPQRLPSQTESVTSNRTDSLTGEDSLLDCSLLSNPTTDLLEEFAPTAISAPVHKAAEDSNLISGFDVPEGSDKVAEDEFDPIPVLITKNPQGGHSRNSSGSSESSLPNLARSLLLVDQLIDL

In data set [1], `COc1ncccc1-c1cnc2ccc(N3CC[C@@H](N(C)C(=O)OC(C)(C)C)C3)nn12` had a concentration for half-maximal inhibition (IC50) of less than 10 nM. Further, the Kd in data set [2] was found to be 1 nM. `COc1ncccc1-c1cnn2ccc(N3CCN(C(=O)OC(C)C)CC3)nc12` yielded a bioavailability in data set [3] of 100%. The compound also had a half-life in data set [4] of 3.6 h.

Take `COC(=O)[C@@]1(O)[C@@H](C)[C@H]2O[C@]1(C)n1c3ccccc3c3c4c(c5c6ccccc6n2c5c31)C(=O)NC4`: the half-maximal inhibitory concentration (IC50) in data set [5] was less than 30 nM. With `[3H]CC([3H])(C[3H])C([3H])[C@H](N)COc1ccc2c(c1)[nH]c(=O)c1cnccc12` (stereo partly specified), the IC50 in data set [6] was determined as 2.8 nM. As for `COC(=O)c1ccc2c(c1)NC(=O)C2C(Nc1ccc(N(C)C(=O)CN2CCN(C)CC2)cc1)c1ccccc1` (stereo unspecified), in data set [2], the equilibrium dissociation constant (Kd) amounted to 1060 nM.

The compound `CC(C)C[C@](C)(N)COc1ccc(-c2ccncc2)cc1C(F)(F)F` came in with a concentration for half-maximal inhibition (IC50) in data set [7] of 2.9 nM. With `COC(=O)[C@@]1(O)C[C@@H]2O[C@]1(C)n1c3ccccc3c3c4c(c5c6ccccc6n2c5c31)C(=O)NC4`, in data set [5], the IC50 was less than 10 nM. On to `COc1ncccc1-c1cnc2ccc(N3CC[C@@H](N(C)C(=O)OC(C)C)C3)nn12`, for which, in data set [1], the 50% inhibitory concentration (IC50) is less than 10 nM. In addition, the equilibrium dissociation constant (Kd) in data set [2] was 1 nM.

Usually IC50 stands for the concentration that gives 50% inhibition. By Kd is commonly meant the free concentration of one partner at which half of the binding sites on the other are occupied at equilibrium, for simple one-to-one binding. Usually bioavailability stands for dose-corrected exposure relative to a reference, in per cent. A lower bioavailability goes with poor availability. By half-life is commonly meant how long it takes for the measured level to halve. A low value points to fast loss.
